We go through six molecules from US11322228B2, “Structure based design of d-protein ligands” (Janssen Vaccines & Prevention B.V., priority 2015, dated 2022).

The term IC50 denotes the concentration needed to halve the response being measured.

Assay [1] has as its target T1, IL17A (Homo sapiens, UniProt Q16552). In words: ELISA competition assay against Centyrin WPW-His on IL17A. In kind it is binding. The source says: (§1) In order to assess the potential binding of the D-Proteins to IL17A at the binding site of CNT06785, the D-Proteins were screened in an ELISA competition assay against a known competitor of antibody CNT06785, Centyrin WPW-His. To show the specific binding to the epitope, negative control antibody CAT2200 was taken along that binds to a different, non-overlapping epitope on IL17A. […] Upper graphs show competition with centyrin WPW, lower graphs—with antibody CAT2200 binding to a non-overlapping epitope. Response is plotted as a function of logarithm of concentration.
(In general: An ELISA detects its analyte on a solid surface through an enzyme-linked reagent.)

In assay [2] the target is T1, IL17A. In words: ELISA competition assay against negative control antibody CAT2200 (non-overlapping epitope) on IL17A. Particulars: antibody binding a non-overlapping epitope on IL17A.
Description: as §1

Assay [3] concerns Influenza hemagglutinin. Kind of assay: ELISA competition with head binding antibody CR11054 (non-overlapping epitope). Particulars: non-overlapping epitope on HA.
Assay [4] relates to Influenza hemagglutinin. In words: ELISA assay for competition with designer protein HB80.4 (stem epitope). In kind it is binding. The conditions noted are these: for competition with HB80.4 (result in words): stem binding HB80.4, competition ELISA on HA.

Where a SMILES comes first, the peptide text is derived from it. Bridges are numbered along the chain shown (N, C = ends). Where no end group is shown, it is not given here. [ ]: non-standard residue; d: D form. d2Nal = N[C@H](Cc1ccc2ccccc2c1)C(=O)O; dNle = CCCC[C@@H](N)C(=O)O

T1 sequence (Q16552 24-155): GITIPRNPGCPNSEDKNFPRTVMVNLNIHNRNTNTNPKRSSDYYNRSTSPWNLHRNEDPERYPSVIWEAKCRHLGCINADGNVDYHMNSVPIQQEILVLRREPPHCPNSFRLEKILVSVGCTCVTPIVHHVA

For the molecule “H-rsciatepksfctaflckhlmkarlsycrktcGtc-OH (H-[dR][dS][dC][dI][dA][dT][dE][dP][dK][dS][dF][dC][dT][dA][dF][dL][dC][dK][dH][dL][dM][dK][dA][dR][dL][dS][dY][dC][dR][dK][dT][dC]G[dT][dC]-OH; cysteine pairing not given here) [DP141063]”, the “competition with centyrin WPW (result in words)” value (“competition with centyrin WPW” for short) with IL17A [1] is “lack of activity”. Moreover, in the assay with IL17A [2], the “competition with CAT2200 (result in words)” value (shortened to “competition with CAT2200”) was “lack of activity”.
Consider `CCCC[C@H]1NC(=O)[C@@H](CCCCN)NC(=O)[C@@H](CCSC)NC(=O)[C@@H](CC(C)C)NC(=O)[C@@H](Cc2c[nH]cn2)NC(=O)[C@@H](CCCCN)NC(=O)[C@H]2CSSC[C@H]3NC(=O)[C@@H]([C@H](C)O)NC(=O)[C@@H](CCCCN)NC(=O)[C@@H](CCCNC(=N)N)NC(=O)[C@@H](CSSC[C@@H](NC(=O)[C@@H](Cc4ccccc4)NC(=O)[C@@H](CC(C)C)NC(=O)[C@@H](CCCCN)NC(=O)[C@H]4CCCN4C(=O)[C@@H](Cc4ccccc4)NC(=O)[C@@H]([C@H](C)O)NC(=O)[C@@H](C)NC(=O)[C@@H](CCC(N)=O)NC(=O)[C@H](NC(=O)[C@@H](CO)NC(=O)[C@H](N)CCCNC(=N)N)CSSC[C@H](C(=O)O)NC(=O)[C@@H]([C@H](C)O)NC(=O)CNC3=O)C(=O)N[C@H]([C@H](C)O)C(=O)N[C@H](C)C(=O)N[C@H](Cc3ccccc3)C(=O)N[C@H](CC(C)C)C(=O)N2)NC(=O)[C@@H](Cc2ccc3ccccc3c2)NC(=O)[C@@H](CO)NC(=O)[C@@H](CC(C)C)NC(=O)[C@@H](CCCNC(=N)N)NC1=O` [DP142137, H-rscqatfpklfctaflckhlmkxrls<crktcGtc-OH] (H-[dR][dS][dC][dQ][dA][dT][dF][dP][dK][dL][dF][dC][dT][dA][dF][dL][dC][dK][dH][dL][dM][dK][dNle][dR][dL][dS][d2Nal][dC][dR][dK][dT][dC]G[dT][dC]-OH; disulfide 3-35, 12-28, 17-32), for which, at IL17A [1], the “competition with centyrin WPW” value was “clear binding curve”. In addition, the “competition with CAT2200” value on IL17A [2] is listed as “lack of activity”.
Turning to “H-rscidtipksrctafqckhsmkyrlsfcrktcGtc-OH [DP141050, reference compound]”, in the assay with IL17A [1], the “competition with centyrin WPW” value was “lack of activity”. In addition, the “competition with CAT2200” value with IL17A [2] is “lack of activity”. Also, the “competition with CR11054 (result in words)” value in the assay on Influenza hemagglutinin [3] is listed as “lack of activity”.
As to “H-rscqatepkyfctaflckhlmkarlsycrktcGtc-OH (H-[dR][dS][dC][dQ][dA][dT][dE][dP][dK][dY][dF][dC][dT][dA][dF][dL][dC][dK][dH][dL][dM][dK][dA][dR][dL][dS][dY][dC][dR][dK][dT][dC]G[dT][dC]-OH; cysteine pairing not given here) [DP141065]”, in the assay with IL17A [1], the “competition with centyrin WPW” value is recorded as “lack of activity”. Moreover, in the assay with IL17A [2], the “competition with CAT2200” value was “lack of activity”.
For “racprilkkcrrdsdcpGecickGnGycG (RACPRILKKCRRDSDCPGECICKGNGYCG) [DP141753, wild-type scaffold 2LJS as D-protein, negative control, reference compound]”, in the assay on Influenza hemagglutinin [4], the “competition with HB80.4 (result in words)” value is “no competition until the highest concentration”.
In the case of “rfcpsibkkcrrdsdcpG!cickGnGycG (RFCPSIXKKCRRDSDCPGXCICKGNGYCG; not fully specified (some residues); printed as rfcpsibkkcrrdsdcpG!cickGnGycG; cysteine pairing not given here) [DP142093, optimized HA hit, D-protein on scaffold 2LJS]”, the “pIC50, competition with HB80.4” value with Influenza hemagglutinin [4] (competition ELISA on HA) amounted to 4.1. Moreover, the IC50 in the assay with Influenza hemagglutinin [4] (competition ELISA on HA, read-out: IC50 given in brackets after pIC50, competition with HB80.4 (converted)) is 88 µM. Moreover, in the assay with Influenza hemagglutinin [4], the “competition with HB80.4 (result in words)” value is “clear S-curve”. In addition, the “competition with CR11054 (result in words)” value in the assay on Influenza hemagglutinin [3] was “no competition”.
